In the assay the target is Angiopoietin-1 receptor (Homo sapiens, UniProt Q02763). In words: Homogeneous Time-Resolved Fluorescence (HTRF) Enzyme Assay. The procedure: The assay uses purified GST-Tie-2 or GST-VEGFR2 interacting with biotinylated peptide substrates. HTRF is based on the proximity of europium cryptate (donor fluorophore)-labeled antiphosphotyrosine and streptavidin labeled with APC (allophycocyanin), which have been brought together by a binding reaction. […] The IC50 values for inhibitors were determined by a four-parameter sigmoidal curve fit.
(Time-resolved FRET reads energy transfer from a long-lived donor to a nearby acceptor.)

Sequence of Angiopoietin-1 receptor (Q02763 whole entry): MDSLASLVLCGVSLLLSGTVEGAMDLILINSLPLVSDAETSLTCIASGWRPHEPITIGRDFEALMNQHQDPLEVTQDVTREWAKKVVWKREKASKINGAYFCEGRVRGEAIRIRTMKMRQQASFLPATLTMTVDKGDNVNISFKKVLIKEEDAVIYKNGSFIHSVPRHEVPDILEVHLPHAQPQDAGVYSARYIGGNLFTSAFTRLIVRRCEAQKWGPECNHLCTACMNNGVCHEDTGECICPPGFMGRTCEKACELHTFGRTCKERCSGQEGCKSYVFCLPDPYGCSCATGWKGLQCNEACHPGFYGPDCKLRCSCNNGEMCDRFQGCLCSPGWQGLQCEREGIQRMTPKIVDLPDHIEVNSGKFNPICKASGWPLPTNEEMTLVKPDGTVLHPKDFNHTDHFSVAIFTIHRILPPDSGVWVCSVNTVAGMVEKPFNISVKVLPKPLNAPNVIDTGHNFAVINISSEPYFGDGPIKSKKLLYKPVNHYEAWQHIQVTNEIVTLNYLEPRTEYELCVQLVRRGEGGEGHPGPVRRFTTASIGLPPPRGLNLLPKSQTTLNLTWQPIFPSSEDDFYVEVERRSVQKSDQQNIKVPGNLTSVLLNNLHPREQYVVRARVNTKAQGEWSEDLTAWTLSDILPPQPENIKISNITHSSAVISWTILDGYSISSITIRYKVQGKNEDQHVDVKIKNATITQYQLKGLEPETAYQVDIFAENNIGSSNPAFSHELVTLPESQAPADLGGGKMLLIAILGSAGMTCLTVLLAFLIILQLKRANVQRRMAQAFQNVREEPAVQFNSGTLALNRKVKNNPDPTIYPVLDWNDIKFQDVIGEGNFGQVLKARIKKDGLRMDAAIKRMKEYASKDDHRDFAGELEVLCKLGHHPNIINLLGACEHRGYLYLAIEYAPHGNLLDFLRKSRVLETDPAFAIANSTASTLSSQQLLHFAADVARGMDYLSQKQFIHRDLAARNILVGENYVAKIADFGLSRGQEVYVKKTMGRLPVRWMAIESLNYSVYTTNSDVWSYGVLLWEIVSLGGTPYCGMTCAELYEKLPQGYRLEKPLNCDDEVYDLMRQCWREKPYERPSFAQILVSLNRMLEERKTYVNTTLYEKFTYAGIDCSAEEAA

In general, IC50 refers to the concentration that gives 50% inhibition. A low value points to greater potency in that assay. Compound `O=C(Nc1ccc(Oc2ccc3nc(NC(=O)c4ccccc4-n4cccc4)[nH]c3c2)cc1)Nc1cc(C(F)(F)F)ccc1F` [N-(6-(4-((2-Fluoro-5(trifluoromethyl)phenyl)aminocarbonylamino)phenoxy)-1H-benzimidazol-2-yl)-2-(1H-pyrrol-1-yl)benzamide] registered an IC50 of 1300 nM.
